≈ marks a conversion by molar mass, not a printed value. Bounds are passed on as bounds.

One assay has as its system Aorta. Kind of assay: Vasodilatory activity in Sprague-Dawley rat thoracic aorta smooth muscle assessed as inhibition of phenylephrine-induced vasoconstriction. The assay is classed as functional, tissue-based.
Details: not given
As for `COc1ccc(CCN(C)CCCC(C#N)(c2ccc(OC)c(OC)c2)C(C)C)cc1OC` (stereo not drawn) [VERAPAMIL], the IC50 stood at 0.32 µg/mL (≈ 0.704 µM).
Consider `CC[C@H]1CN2CC[C@@]3(C(=O)Nc4ccccc43)[C@@H]2C[C@@H]1/C(=C\OC)C(=O)OC` [ISORHYNCHOPHYLLINE], for which the IC50 is 18.4 µg/mL (≈ 47.9 µM).
On the same count and under the same terms, for `CC[C@H]1C[N@@+]2(C)CC[C@]3(C([O-])=Nc4ccccc43)[C@H]2C[C@@H]1/C(=C/OC)C(=O)OC` [MACROPHYLLIONIUM] the value was greater than 30 µg/mL.
Still for that read-out and setting: for `CC[C@H]1CN2CC[C@]3(C(=O)Nc4ccccc43)[C@@H]2C[C@@H]1/C(=C\OC)C(=O)OC` [RHYNCHOPHYLLINE] the value was greater than 30 µg/mL; for `CC[C@@H]1[C@@H](/C(=C/OC)C(=O)OC)C[C@@H]2N(CC[C@@]23C(=O)Nc2ccccc23)[C@H]1CC(C)=O` [MACROPHYLLINE B], greater than 30 µg/mL.
On to `CC[C@@H]1CN2CCc3c([nH]c4ccccc34)[C@@H]2C[C@@H]1/C(=C/OC)C(=O)OC` [CORYNANTHEIDINE], for which the IC50 is greater than 30 µg/mL.
On to `CC[C@@H]1CN2CC[C@@]3(C(=O)Nc4ccccc43)[C@@H]2C[C@@H]1/C(=C\OC)C(=O)OC` [CORYNOXINE], for which the IC50 was greater than 30 µg/mL.
Take `CC[C@@H]1[C@@H](/C(=C/OC)C(=O)OC)C[C@@H]2N(CC[C@]23C(=O)Nc2ccccc23)[C@H]1CC(C)=O` [MACROPHYLLINE A]: the IC50 worked out at 15.9 µg/mL (≈ 36 µM).
On the same count and under the same terms, the same measure for `CC[C@@H]1CN2CC[C@]3(C(=O)Nc4ccccc43)[C@@H]2C[C@@H]1/C(=C\OC)C(=O)OC` [CORYNOXINE B]: greater than 30 µg/mL.
As to `CC[C@H]1CN2CCc3c([nH]c4ccccc34)[C@@H]2C[C@@H]1/C(=C/OC)C(=O)OC` [DIHYDROCORYNANTHEINE], the IC50 was found to be 21.8 µg/mL (≈ 59.2 µM).

Another assay concerns SW480. Briefly: Cytotoxicity against human SW480 cells after 48 hrs by MTT assay. The class given is functional, cell-based. The note with it: SW480, 48 h.
Molecule `CC[C@H]1CN2CC[C@@]3(C(=O)Nc4ccccc43)[C@@H]2C[C@@H]1/C(=C\OC)C(=O)OC` [ISORHYNCHOPHYLLINE] gave an IC50 greater than 40 µM.
Turning to `CC[C@H]1C[N@@+]2(C)CC[C@]3(C([O-])=Nc4ccccc43)[C@H]2C[C@@H]1/C(=C/OC)C(=O)OC` [MACROPHYLLIONIUM], the IC50 was greater than 40 µM.
On the same count and under the same terms, for `CC[C@H]1CN2CC[C@]3(C(=O)Nc4ccccc43)[C@@H]2C[C@@H]1/C(=C\OC)C(=O)OC` [RHYNCHOPHYLLINE] the value was greater than 40 µM.
In the case of `CC[C@@H]1[C@@H](/C(=C/OC)C(=O)OC)C[C@@H]2N(CC[C@@]23C(=O)Nc2ccccc23)[C@H]1CC(C)=O` [MACROPHYLLINE B], the IC50 was greater than 40 µM.
On the same count and under the same terms, for `CC[C@@H]1CN2CCc3c([nH]c4ccccc34)[C@@H]2C[C@@H]1/C(=C/OC)C(=O)OC` [CORYNANTHEIDINE] the value was 23.3 µM.
The same measure, in the same setting: the same measure for `CC[C@@H]1CN2CC[C@@]3(C(=O)Nc4ccccc43)[C@@H]2C[C@@H]1/C(=C\OC)C(=O)OC` [CORYNOXINE]: greater than 40 µM; for `CC[C@@H]1[C@@H](/C(=C/OC)C(=O)OC)C[C@@H]2N(CC[C@]23C(=O)Nc2ccccc23)[C@H]1CC(C)=O` [MACROPHYLLINE A]: greater than 40 µM; for `CC[C@@H]1CN2CC[C@]3(C(=O)Nc4ccccc43)[C@@H]2C[C@@H]1/C(=C\OC)C(=O)OC` [CORYNOXINE B]: greater than 40 µM.
As for `CC[C@H]1CN2CCc3c([nH]c4ccccc34)[C@@H]2C[C@@H]1/C(=C/OC)C(=O)OC` [DIHYDROCORYNANTHEINE], the IC50 was greater than 40 µM.

For another assay, the system named is HL-60. Briefly: Cytotoxicity against human HL60 cells after 48 hrs by MTT assay. The class given is functional, cell-based. To be noted: HL-60, 48 h.
Consider `CC[C@H]1CN2CC[C@@]3(C(=O)Nc4ccccc43)[C@@H]2C[C@@H]1/C(=C\OC)C(=O)OC` [ISORHYNCHOPHYLLINE], for which the IC50 was greater than 40 µM.
`CC[C@H]1C[N@@+]2(C)CC[C@]3(C([O-])=Nc4ccccc43)[C@H]2C[C@@H]1/C(=C/OC)C(=O)OC` [MACROPHYLLIONIUM] showed an IC50 greater than 40 µM.
`CC[C@H]1CN2CC[C@]3(C(=O)Nc4ccccc43)[C@@H]2C[C@@H]1/C(=C\OC)C(=O)OC` [RHYNCHOPHYLLINE] showed an IC50 greater than 40 µM.
On the same count and under the same terms, for `CC[C@@H]1[C@@H](/C(=C/OC)C(=O)OC)C[C@@H]2N(CC[C@@]23C(=O)Nc2ccccc23)[C@H]1CC(C)=O` [MACROPHYLLINE B] the value was greater than 40 µM; for `CC[C@@H]1CN2CCc3c([nH]c4ccccc34)[C@@H]2C[C@@H]1/C(=C/OC)C(=O)OC` [CORYNANTHEIDINE], 14 µM; for `CC[C@@H]1CN2CC[C@@]3(C(=O)Nc4ccccc43)[C@@H]2C[C@@H]1/C(=C\OC)C(=O)OC` [CORYNOXINE], greater than 40 µM.
Still for that read-out and setting: the same measure for `CC[C@@H]1[C@@H](/C(=C/OC)C(=O)OC)C[C@@H]2N(CC[C@]23C(=O)Nc2ccccc23)[C@H]1CC(C)=O` [MACROPHYLLINE A]: greater than 40 µM; for `CC[C@@H]1CN2CC[C@]3(C(=O)Nc4ccccc43)[C@@H]2C[C@@H]1/C(=C\OC)C(=O)OC` [CORYNOXINE B]: greater than 40 µM.
For `CC[C@H]1CN2CCc3c([nH]c4ccccc34)[C@@H]2C[C@@H]1/C(=C/OC)C(=O)OC` [DIHYDROCORYNANTHEINE], the concentration for half-maximal inhibition (IC50) was greater than 40 µM.

The next assay relates to Aorta. Briefly: Vasodilatory activity in Sprague-Dawley rat thoracic aorta smooth muscle assessed as inhibition of KCL-induced vasoconstriction.
Details: not given
The class given is functional, tissue-based.
Consider `COc1ccc(CCN(C)CCCC(C#N)(c2ccc(OC)c(OC)c2)C(C)C)cc1OC` (stereo not drawn) [VERAPAMIL], for which the IC50 was determined as 1.41 µg/mL (≈ 3.1 µM).
Take `CC[C@H]1CN2CC[C@@]3(C(=O)Nc4ccccc43)[C@@H]2C[C@@H]1/C(=C\OC)C(=O)OC` [ISORHYNCHOPHYLLINE]: the IC50 is greater than 30 µg/mL.
Still for that read-out and setting: the same measure for `CC[C@H]1C[N@@+]2(C)CC[C@]3(C([O-])=Nc4ccccc43)[C@H]2C[C@@H]1/C(=C/OC)C(=O)OC` [MACROPHYLLIONIUM]: greater than 30 µg/mL.
Take `CC[C@H]1CN2CC[C@]3(C(=O)Nc4ccccc43)[C@@H]2C[C@@H]1/C(=C\OC)C(=O)OC` [RHYNCHOPHYLLINE]: the IC50 is greater than 30 µg/mL.
Regarding `CC[C@@H]1[C@@H](/C(=C/OC)C(=O)OC)C[C@@H]2N(CC[C@@]23C(=O)Nc2ccccc23)[C@H]1CC(C)=O` [MACROPHYLLINE B], the IC50 is greater than 30 µg/mL.
Still for that read-out and setting: for `CC[C@@H]1CN2CCc3c([nH]c4ccccc34)[C@@H]2C[C@@H]1/C(=C/OC)C(=O)OC` [CORYNANTHEIDINE] the value was greater than 30 µg/mL.
The same measure, in the same setting: the same measure for `CC[C@@H]1CN2CC[C@@]3(C(=O)Nc4ccccc43)[C@@H]2C[C@@H]1/C(=C\OC)C(=O)OC` [CORYNOXINE]: greater than 30 µg/mL; for `CC[C@@H]1[C@@H](/C(=C/OC)C(=O)OC)C[C@@H]2N(CC[C@]23C(=O)Nc2ccccc23)[C@H]1CC(C)=O` [MACROPHYLLINE A]: greater than 30 µg/mL.
Regarding `CC[C@@H]1CN2CC[C@]3(C(=O)Nc4ccccc43)[C@@H]2C[C@@H]1/C(=C\OC)C(=O)OC` [CORYNOXINE B], the IC50 is greater than 30 µg/mL.
`CC[C@H]1CN2CCc3c([nH]c4ccccc34)[C@@H]2C[C@@H]1/C(=C/OC)C(=O)OC` [DIHYDROCORYNANTHEINE]: the IC50 is 6.73 µg/mL (≈ 18.3 µM).

The record behind these values is ChEMBL document CHEMBL1667726, “Macrophyllionium and macrophyllines A and B, oxindole alkaloids from Uncaria macrophylla” (J Nat Prod, 2011).
